Several values for one entry are separate records, joined by “and”; a condition that tells them apart may be missing. Equal values may be shown once.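 Compound exposure: 48 hours, 5 concentrations, 96-well plates. At the GI50, growth is halved. TGI is the concentration that stops growth completely.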
How the values were obtained:
Assay in all cases: inhibition of tumour cell growth, NCI panel, 48 h
HCT-116 colon = tested on: HCT-116 colon
KM12 colon = tested on: KM12 colon
SK-OV-3 ovarian = tested on: SK-OV-3 ovarian
ACHN renal = tested on: ACHN renal
K-562 leukemia = tested on: K-562 leukemia
HCC-2998 colon = tested on: HCC-2998 colon
SF-268 CNS = tested on: SF-268 CNS
HT29 colon = tested on: HT29 colon
SNB-19 CNS = tested on: SNB-19 CNS
BT-549 breast = tested on: BT-549 breast
IGROV1 ovarian = tested on: IGROV1 ovarian
MDA-N = tested on: MDA-N
HOP-62 NSCLC = tested on: HOP-62 NSCLC

Row | SMILES | TGI (HCT-116 colon) | TGI (KM12 colon) | TGI (SK-OV-3 ovarian) | TGI (ACHN renal) | TGI (K-562 leukemia) | TGI (HCC-2998 colon) | TGI (SF-268 CNS) | TGI (HT29 colon) | TGI (SNB-19 CNS) | TGI (BT-549 breast) | TGI (IGROV1 ovarian) | TGI (MDA-N) | TGI (HOP-62 NSCLC) | GI50 (HCT-116 colon) | GI50 (KM12 colon) | GI50 (ACHN renal) | GI50 (SF-268 CNS) | GI50 (SNB-19 CNS) | GI50 (MDA-N)
1 | CCOC(=O)n1cncc1CC(NC(=O)Cc1c(C(=O)C=C(C)C)[nH]c2ccccc12)C(=O)OC (centres undefined) | > 100 µM | 39.1 µM | 35.3 µM | 36 µM | > 100 µM | 32.2 µM | 37.4 µM | 66.6 µM | 30.5 µM | 37.3 µM | 37.5 µM | 84.3 µM | – | – | – | – | – | – | –
2 | O=C1CCCC2=C1CC1=C(CCCC1=O)N2c1cccc2ccccc12 | – | > 100 µM | > 100 µM | > 100 µM | > 100 µM | > 100 µM | > 100 µM | > 100 µM | > 100 µM | > 100 µM | > 100 µM | – | – | – | – | – | – | – | –
3 | CC(C)CC1c2[nH]c3ccccc3c2C[C@H]2C(=O)NC(CCC(=O)OC(C)(C)C)C(=O)N12 (some centres undefined) | > 100 µM | > 100 µM | > 100 µM | > 100 µM | > 100 µM | – | > 100 µM | 43.1 µM | > 100 µM | > 100 µM | > 100 µM | > 100 µM | 56.2 µM | – | – | – | – | – | –
4 | Cn1c2nc3ccccc3c-2cc2ccccc21 | > 100 µM | 11 µM and 46.4 µM | > 100 µM | 15.2 µM and > 100 µM | > 100 µM and 39.7 µM | 17.6 µM | 17 µM and 40.3 µM | 18.3 µM and 31.4 µM | > 100 µM | 9.09 µM | 25.5 µM and > 100 µM | 30.1 µM and 23.1 µM | – | 1.8 µM and 4.57 µM | 2.19 µM and 6.02 µM | 2.06 µM and 4.8 µM | 3.95 µM and 8.47 µM | 5.94 µM and 14.7 µM | 4.27 µM and 10.4 µM
5 | N=C1C(=N)c2ccccc2-c2ccccc21 | 1.2 µM | 3.4 µM | 3.07 µM | 2.72 µM | – | 3.47 µM | 4.16 µM | 3.81 µM | 3.01 µM | 2.23 µM | 3.93 µM | 0.325 µM | 3.04 µM | – | – | – | – | – | –
6 | CC(=O)Nc1ccc2c(C)c3c4ccccc4n(C)c3nc2n1 | 44.6 µM | 40.2 µM | – | 33.1 µM | – | 30.9 µM | 64.4 µM | > 100 µM | > 100 µM | 84.8 µM | > 100 µM | 34.5 µM | 94.8 µM | – | – | – | – | – | –
7 | COc1cc2[nH]c(-c3cccc(N(C)C)c3)cc(=O)c2cc1OC | > 100 µM | > 60.1 µM | > 100 µM | > 100 µM | > 100 µM | 7.5 µM | > 100 µM | > 25.9 µM | > 100 µM | – | > 100 µM | – | > 100 µM | – | – | – | – | – | –
8 | CNC(=O)CCNC(=O)CCC(=O)OC | > 100 µM | > 100 µM | > 100 µM | > 100 µM | > 100 µM | – | > 100 µM | > 100 µM | > 100 µM | – | – | > 100 µM | > 100 µM | – | – | – | – | – | –
9 | COC12C=CC(CC1)C1C(=O)c3c(C)c(C)n(C)c3C(=O)C12 (centres undefined) | > 100 µM | > 100 µM | > 100 µM | > 100 µM | > 100 µM | – | > 100 µM | > 100 µM | > 100 µM | > 100 µM | > 100 µM | – | > 100 µM | – | – | – | – | – | –
10 | O=C1N=C(c2ccccc2)O/C1=C\c1ccccc1 | > 100 µM | > 100 µM | > 100 µM | > 100 µM | – | > 100 µM | > 100 µM | > 100 µM | > 100 µM | > 100 µM | > 100 µM | > 100 µM | > 100 µM | – | – | – | – | – | –
11 | CC1C[C@]2(C)C(=S)Nc3ccccc3[C@@H]2Nc2ccccc21 (some centres undefined) | 26.7 µM | 28.9 µM | – | 39.5 µM | > 100 µM | 40.6 µM | 16.4 µM | 26.6 µM | 57.4 µM | – | 40.3 µM | 37.4 µM | 31.8 µM | – | – | – | – | – | –
12 | COc1ccc(OC)c2nc3c(C(=O)NCCN(C)C)cccc3nc12 | 20.6 µM | 22.3 µM | – | > 100 µM | 23.2 µM | 13.4 µM | 27.6 µM | > 44.3 µM | > 100 µM | 33 µM | > 69.5 µM | 16 µM | 35.7 µM | – | – | – | – | – | –
13 | Cc1ccc(S(=O)(=O)NNC(=S)Nc2cccc3ccccc23)cc1 | > 100 µM | 99 µM | > 100 µM | 79.9 µM | > 100 µM | > 100 µM | > 100 µM | > 100 µM | > 100 µM | – | > 100 µM | > 100 µM | > 100 µM | – | – | – | – | – | –
14 | CNC(=O)c1n[nH][nH]c1=O | > 100 µM | > 100 µM | > 100 µM | > 100 µM | > 100 µM | > 100 µM | > 100 µM | > 100 µM | > 100 µM | – | > 100 µM | > 100 µM | > 100 µM | – | – | – | – | – | –
15 | COC1OC(CO)C(O)C(OC(=O)c2cc(O)c(O)c(O)c2)C1OC(=O)c1cc(O)c(O)c(O)c1 (centres undefined) | > 100 µM | > 100 µM | > 100 µM | > 100 µM | > 100 µM | – | > 100 µM | > 100 µM | > 100 µM | > 100 µM | > 100 µM | 55.7 µM | > 100 µM | – | – | – | – | – | –
16 | CCOC(=O)c1nc2ccc(C(F)(F)F)cc2nc1Oc1ccc(F)cc1 | > 100 µM | > 100 µM | > 100 µM | > 100 µM | > 100 µM | > 100 µM | > 100 µM | > 100 µM | > 100 µM | > 100 µM | > 100 µM | – | > 100 µM | – | – | – | – | – | –
17 | COc1ccc2c3ccc4c(c3n(C)c2c1)C(=O)c1ccccc1C4=O | > 100 µM | – | > 100 µM | > 100 µM | > 100 µM | > 100 µM | > 100 µM | > 100 µM | > 100 µM | – | > 100 µM | – | > 100 µM | – | – | – | – | – | –
18 | O=c1cc(-c2cccc(OC(F)(F)F)c2)[nH]c2cc3c(cc12)OCO3 | 34.6 µM | > 100 µM | – | > 100 µM | – | 0.157 µM | > 100 µM | 26.6 µM | > 100 µM | 33.5 µM | 16.3 µM | – | > 47.8 µM | – | – | – | – | – | –
19 | CC1=NN(C(=O)Cc2ccccc2)C(=O)/C1=C\C=C\c1ccccc1 | > 100 µM | > 100 µM | – | > 100 µM | > 100 µM | > 100 µM | > 100 µM | > 100 µM | > 100 µM | – | – | – | > 100 µM | – | – | – | – | – | –
